Experimental data published in patent US20240122179A1, “AUXINIC HERBICIDES AND METHODS OF USE THEREOF” (CORTEVA AGRISCIENCE LLC, priority 2021, published 2024).
Where two headings read alike, the source gives them in different places.

Legend:
[1] = system: Amaranthus palmeri (AMAPA); test: Postemergence herbicide evaluation, percent reduction in plant size vs untreated control, 21 days after treatment; format: in vivo, Amaranthus palmeri (Palmer amaranth); settings: post-emergence, 504 h, postemergence, read-out: Control/Injury; for pest or weed control at 140 g/ha: rate 140 g ae/ha; for pest or weed control at 280 g/ha: rate 280 g ae/ha
How it was run: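 Greenhouse-grown Palmer amaranth (25 to 28° C, 16 h light) sprayed postemergence at the 2 to 8 leaf stage with 140 or 280 g ae/ha in acetone/DMSO-based solution containing crop oil concentrate, 187 L/ha by track sprayer. Three to four replicates; plant size measured 21 days after treatment as percent reduction versus untreated control.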

[2] = Volatility of compounds measured by thermogravimetric analysis (TGA), rate of weight loss; format: physicochemical; settings: estimates of volatility
Excerpt: Briefly, the rate of weight loss measured in units of […]g/min can be used to determine vapor pressure as shown by the simplified equation: wherein, k is the intrinsic volatility and A is the surface area, Referring now to FIG. 2. A graph of weight loss as function of time for solid samples produces a linear curve; the slope of the curve is the rate of weight loss. When this method is used to measure the volatility of aqueous salt concentrates or liquid concentrates, the water or acetone present in the sample volatilizes before the sample of interest. The first linear loss region of the curve is the loss of water or acetone and the second linear region is characteristic of the sample of interest. In order to illustrate the difference in volatility between some of the compounds disclosed herein and the widely used herbicide dicamba, data from both the compounds and dicamba are presented Table 3 and in FIG. 1.

[3] = system: Ambrosia artemisiifolia (AMBEL); test: Postemergence herbicide evaluation, percent reduction in plant size vs untreated control, 21 days after treatment; format: in vivo, Ambrosia artemisiifolia (common ragweed); settings: post-emergence, 504 h, AMBEL, postemergence, read-out: Control/Injury; for pest or weed control at 140 g/ha: rate 140 g ae/ha; for pest or weed control at 280 g/ha: rate 280 g ae/ha
How it was run: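 Greenhouse-grown plants (25–28 °C, 16 h light) were sprayed postemergence at the 2–8 leaf stage with 140 or 280 g ae/ha in acetone/DMSO-based spray solution with crop oil and surfactant, at 187 L/ha by track sprayer. There were 3–4 replicates. Plant size was measured 21 days after treatment versus untreated plants.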

Kochia scoparia (KCHSC) = test: as above; format: in vivo; settings: KCHSC, postemergence; for pest or weed control at 140 g/ha / pest or weed control at 280 g/ha: Bassia scoparia, post-emergence, 504 h, read-out: Control/Injury; for pest or weed control at 280 g/ha: rate 280 g ae/ha
How it was run: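 Greenhouse-grown plants (25-28 °C, 16 h light) at the 2 to 8 leaf stage were track-sprayed postemergence at 140 or 280 g ae/ha in acetone/DMSO-based spray solution with crop oil and surfactant, at 187 L/ha, in 3-4 randomized replicates.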

[4] = system: Conyza canadensis (L.) (ERICA); test: as above; format: in vivo, Conyza canadensis (L.) (Horseweed); settings: Erigeron canadensis, post-emergence, 504 h, ERICA, postemergence, read-out: Control/Injury; for pest or weed control at 140 g/ha: rate 140 g ae/ha; for pest or weed control at 280 g/ha: rate 280 g ae/ha
How it was run: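 Horseshoe-weed (horseweed) seedlings at 2 to 8 leaf stage in greenhouse (25-28° C, 16 h light), sprayed postemergence at 140 or 280 g ae/ha in acetone/DMSO-based spray solution, 187 L/ha track-sprayer. Randomized complete block, 3-4 replicates; plant size measured 21 days after treatment as percent reduction vs untreated controls.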

[5] = R-AMAPA, percent reduction vs untreated control, 21 days after treatment
[6] = percent reduction vs untreated, 21 days after treatment
[7] = percent reduction vs untreated control, 21 days after treatment

Row | Volatility [2] [ng/min] | Compound | pest or weed control at 140 g/ha [1, 5] [%] | pest or weed control at 280 g/ha [1, 5] [%] | pest or weed control at 140 g/ha [3] [%] | pest or weed control at 280 g/ha [3] [%] | pest or weed control at 140 g/ha (Kochia scoparia (KCHSC); rate 140 g ae/ha) [%] | pest or weed control at 280 g/ha (Kochia scoparia (KCHSC)) [%] | pest or weed control at 140 g/ha [4, 7] [%] | pest or weed control at 280 g/ha [4, 7] [%] | also measured
1 | 0.25 | COc1c(Cl)ccc(Cl)c1C(=O)OCOC(=O)c1ccccc1 [Compound A-51] | 95 | 95 | 90 | 95 | 92 | 99 |  |  | 
2 | 0.19 | COc1c(Cl)ccc(Cl)c1C(=O)OCOC(=O)c1c(Cl)ccc(Cl)c1OC [Compound A-53] | 70 | 98 | 60 | 70 | 85 | 90 |  |  | Control/Injury (Kochia scoparia (KCHSC); rate 140 g ae/ha): 85
3 | 0.1 | COc1c(Cl)ccc(Cl)c1C(=O)O/N=C(\C)c1ccccc1 [Compound A-46] | 85 | 80 | 85 | 82 | 99 | 100 |  |  | 
4 | 0.145 | COc1c(Cl)ccc(Cl)c1C(=O)O/N=C(\N)c1ccsc1 [Compound A-37] |  |  |  |  |  |  | 87 | 96 | 
5 | 0.022 | COc1c(Cl)ccc(Cl)c1C(=O)O/N=C(\N)c1cncnc1 [Compound A-35] |  |  |  |  |  |  | 96 | 99 | 
6 | 0.24 | COc1c(Cl)ccc(Cl)c1C(=O)OCCOCCOC(=O)c1c(Cl)ccc(Cl)c1OC [Compound A-55] |  |  | 25 |  |  | 15 |  |  | 
7 | 0.039 | COc1c(Cl)ccc(Cl)c1C(=O)O/N=C(\N)c1ccccn1 [Compound A-34] |  |  |  |  |  |  | 87 | 97 | 

Further lines, the compound ahead of its results:

Row | Compound | Volatility [2] [ng/min] | pest or weed control at 140 g/ha [1, 5] [%] | pest or weed control at 280 g/ha [1, 5] [%] | pest or weed control at 140 g/ha [3] [%] | pest or weed control at 280 g/ha [3] [%] | pest or weed control at 140 g/ha (Kochia scoparia (KCHSC); rate 140 g ae/ha) [%] | pest or weed control at 280 g/ha (Kochia scoparia (KCHSC)) [%] | pest or weed control at 140 g/ha [4, 7] [%] | pest or weed control at 280 g/ha [4, 7] [%] | also measured
8 | COc1c(Cl)ccc(Cl)c1C(=O)O/N=C(\N)c1ccccc1 [Compound A-150] | 0.08 |  |  |  |  |  |  |  |  | pest or weed control at 140 g/ha [4]: 98%; pest or weed control at 280 g/ha [4]: 97%; pest or weed control at 140 g/ha [4, 6]: 95%; pest or weed control at 280 g/ha [4, 6]: 98%; pest or weed control at 140 g/ha ([1]; AMAPA): 80%; pest or weed control at 280 g/ha ([1]; AMAPA): 78%; pest or weed control at 140 g/ha (Kochia scoparia (KCHSC); rate 140 g ae/ha, percent reduction vs untreated, 21 days after treatment): 88%; pest or weed control at 280 g/ha (Kochia scoparia (KCHSC); [6]): 99%
9 | COc1c(Cl)ccc(Cl)c1C(=O)O/N=C(\N)c1ccccc1 [Compound A-49] | 0.08 | 95 | 100 | 98 | 99 | 82 | 100 | 95 | 98 | 
10 | COc1c(Cl)ccc(Cl)c1C(=O)O/N=C(\N)c1ccncc1 [Compound A-33] | 0.015 |  |  |  |  |  |  | 87 | 93 | 
11 | COc1c(Cl)ccc(Cl)c1C(=O)O/N=C(\N)c1cccs1 [Compound A-36] | 0.417 |  |  |  |  |  |  | 83 | 98 | 
12 | COc1c(Cl)ccc(Cl)c1C(=O)O/N=C(\N)c1ccco1 [Compound A-38] | 0.46 |  |  |  |  |  |  | 89 | 97 | 
13 | COc1c(Cl)ccc(Cl)c1C(=O)O/N=C(\N)C1CCCCC1 [Compound A-6] | 0.064 |  |  |  |  |  |  | 98 | 98 | 
